{"source": "patent US6294568A", "about": "“5-arylpyrrole derivatives” (priority 1997, dated 2001)", "test_system": "CaCo-2 cells", "test": "Cytostatic Action Test on Various Cells (XTT method)", "assay_type": "cell-based", "description": "The cytostatic measurement of the various cancer cells were conducted according to the method of the U.S. National Cancer Institute (NCI). Adhesive cells such as CaCo-2 and HepG2 were adjusted in each of the specified culture mediums at 0.5×10^5 cells/ml concentration and pipetted into a 96 well-plate (Costar3695) in an amount of 100 μl/well. The cells were cultured under the conditions of at 37° C. in 5% CO2 atmosphere for 24 hours to allow the cell adhesion, and then the numbers of each of the cells were determined by the XTT method to be recorded as the cell number of day 0 (C0days). After that, only the medium solutions were exchanged in the control groups, and culture mediums each containing the test samples adjusted to each of the specified concentrations were exchanged In the test sample dispensing groups, then the cells were cultured under the conditions of at 37° C. in 5% CO2 atmosphere for 72 hours. The numbers of each of the cells were determined by the XTT method to be recorded as the cell number of day 3 (C3days). Further, only the medium solutions were pipetted into the control groups and the test sample administration groups were adjusted to 5×10^5 cells/ml concentrations in each of the specified culture mediums containing the test samples adjusted to each of the specified concentrations, then pipetted into a 96 well-plate (Costar3695) in an amount of 100 μl/well. The cells were cultured under the condition of at 37° C. in 5% CO2 atmosphere for 72 hours, and the number of each of the cells (T3days) were determined in the same manner.\nCell proliferation rate (%) with respect to control groups=[(T3days\n-C0days)/(C3days -C0days)]×100 Formula: 5", "data": [{"molecule": "Cc1cc(-c2ccc(F)cc2)c(-c2ccc(S(C)(=O)=O)cc2)[nH]1", "note": "[Preparation Example 1, 4-(4-fluorophenyl)-2-methyl-5-(4-methylsulfonylphenyl)-1H-pyrrole]", "values": [{"measurement": "cytostatic action", "setting": "CaCo-2 cells, colon cancer cells", "value": "demonstrated a cytostatic action with respect to CaCo-2 cells"}, {"measurement": "IC50", "setting": "Homo sapiens, CaCo-2, 72 hours, XTT method, read-out: Cytostatic rate (IC50)", "value": 780, "unit": "nM"}]}]}
